Test results taken from patent publication US11117892B2, “Pyrrolo-pyridine derivative compound, method for preparing same, and pharmaceutical composition containing same as active ingredient for prevention or treatment of protein kinase-related diseases” (DAEGU-GYEONGBUK MEDICAL INNOVATION FOUNDATION, priority 2017, dated 2021).

Experiments:
Assay in all cases: scanMAX Kinase assay panel
Assay type in all cases: binding
EPHA2 = EPHA2 (Homo sapiens (Human), UniProt P29317); conditions: read-out: % control
Protocol: (§1) DiscoverX Co. was asked to measure the enzyme (kinase) selectivity, and the experiment was performed using scanMAX™ Kinase assay panel.
(§2) (Example Compound−Positive Control)/(Negative Control−Positive Control)×100 [Equation 1]
(§3) Herein, the positive control indicates the compound showing the % control of 0%, and the negative control indicates DMSO showing the % control of 100%.

MEK5 = MEK5 (Homo sapiens (Human), UniProt Q13163); conditions: read-out: % control
Protocol: as §1, §2, §3

PAK2 = PAK2 (Homo sapiens (Human), UniProt Q13177); conditions: read-out: % control
Protocol: as §1, §2, §3

IRAK4 = IRAK4 (Homo sapiens (Human), UniProt Q9NWZ3); conditions: read-out: % control
Protocol: as §1, §2, §3

FLT3(D835V) = FLT3(D835V) (Homo sapiens (Human), UniProt P36888, D835V); conditions: read-out: % control
Protocol: as §1, §2, §3

EGFR(L858R, T790M) = EGFR(L858R, T790M) (Homo sapiens (Human), UniProt P00533, L858R/T790M); conditions: read-out: % control
Protocol: as §1, §2, §3

RIOK2 = RIOK2 (Homo sapiens (Human), UniProt Q9BVS4); conditions: read-out: % control
Protocol: as §1, §2, §3

LRRK2 = LRRK2 (Homo sapiens (Human), UniProt Q5S007); conditions: read-out: % control
Protocol: as §1, §2, §3

PCTK1 = PCTK1 (Homo sapiens (Human), UniProt Q00536); conditions: read-out: % control
Protocol: as §1, §2, §3

TAOK2 = TAOK2 (Homo sapiens (Human), UniProt Q9UL54); conditions: read-out: % control
Protocol: as §1, §2, §3

[1] = biological target: ABL1(E255K)-phosphorylated (Homo sapiens (Human), UniProt P00519, E255K); conditions: read-out: % control
Protocol: as §1, §2, §3

BRAF = BRAF (Homo sapiens (Human), UniProt P15056); conditions: read-out: % control
Protocol: as §1, §2, §3

ULK3 = ULK3 (Homo sapiens (Human), UniProt Q6PHR2); conditions: read-out: % control
Protocol: as §1, §2, §3

MAP4K3 = MAP4K3 (Homo sapiens (Human), UniProt Q8IVH8); conditions: read-out: % control
Protocol: as §1, §2, §3

CAMK1D = CAMK1D (Homo sapiens (Human), UniProt Q8IU85); conditions: read-out: % control
Protocol: as §1, §2, §3

TSSK3 = TSSK3 (Homo sapiens (Human), UniProt Q96PN8); conditions: read-out: % control
Protocol: as §1, §2, §3

PLK3 = PLK3 (Homo sapiens (Human), UniProt Q9H4B4); conditions: read-out: % control
Protocol: as §1, §2, §3

MST1R = MST1R (Homo sapiens (Human), UniProt Q04912); conditions: read-out: % control
Protocol: as §1, §2, §3

LIMK1 = LIMK1 (Homo sapiens (Human), UniProt P53667); conditions: read-out: % control
Protocol: as §1, §2, §3

SRPK1 = SRPK1 (Homo sapiens (Human), UniProt Q96SB4); conditions: read-out: % control
Protocol: as §1, §2, §3

[2] = biological target: RPS6KA4(Kin.Dom.2-C-terminal) (Homo sapiens (Human), UniProt O75676); conditions: read-out: % control
Protocol: as §1, §2, §3

MLK1 = MLK1 (Homo sapiens (Human), UniProt P80192); conditions: read-out: % control
Protocol: as §1, §2, §3

ZAP70 = ZAP70 (Homo sapiens (Human), UniProt P43403); conditions: read-out: % control
Protocol: as §1, §2, §3

CSNK1G2 = CSNK1G2 (Homo sapiens (Human), UniProt P78368); conditions: read-out: % control
Protocol: as §1, §2, §3

PYK2 = PYK2 (Homo sapiens (Human), UniProt Q14289); conditions: read-out: % control
Protocol: as §1, §2, §3

KIT = KIT (Homo sapiens (Human), UniProt P10721); conditions: read-out: % control
Protocol: as §1, §2, §3

EGFR(E746-A750del) = EGFR(E746-A750del) (Homo sapiens (Human), UniProt P00533, DEL746-750); conditions: read-out: % control
Protocol: as §1, §2, §3

[3] = biological target: ABL1(T315I)-nonphosphorylated (Homo sapiens (Human), UniProt P00519, T315I); conditions: read-out: % control
Protocol: as §1, §2, §3

HCK = HCK (Homo sapiens (Human), UniProt P08631); conditions: read-out: % control
Protocol: as §1, §2, §3

NEK2 = NEK2 (Homo sapiens (Human), UniProt P51955); conditions: read-out: % control
Protocol: as §1, §2, §3

CDKL2 = CDKL2 (Homo sapiens (Human), UniProt Q92772); conditions: read-out: % control
Protocol: as §1, §2, §3

TNK2 = TNK2 (Homo sapiens (Human), UniProt Q07912); conditions: read-out: % control
Protocol: as §1, §2, §3

[4] = biological target: ABL1(Y253F)-phosphorylated (Homo sapiens (Human), UniProt P00519, Y253F); conditions: read-out: % control
Protocol: as §1, §2, §3

CDKL1 = CDKL1 (Homo sapiens (Human), UniProt Q00532); conditions: read-out: % control
Protocol: as §1, §2, §3

FLT3(ITD, D835V) = conditions: 1 uM
Protocol: as §1, §2, §3

ADCK3 = ADCK3 (Homo sapiens (Human), UniProt Q8NI60); conditions: read-out: % control
Protocol: as §1, §2, §3

VRK2 = VRK2 (Homo sapiens (Human), UniProt Q86Y07); conditions: read-out: % control
Protocol: as §1, §2, §3

DDR2 = DDR2 (Homo sapiens (Human), UniProt Q16832); conditions: read-out: % control
Protocol: as §1, §2, §3

TYRO3 = TYRO3 (Homo sapiens (Human), UniProt Q06418); conditions: read-out: % control
Protocol: as §1, §2, §3

KIT, sequence (P10721 26-976): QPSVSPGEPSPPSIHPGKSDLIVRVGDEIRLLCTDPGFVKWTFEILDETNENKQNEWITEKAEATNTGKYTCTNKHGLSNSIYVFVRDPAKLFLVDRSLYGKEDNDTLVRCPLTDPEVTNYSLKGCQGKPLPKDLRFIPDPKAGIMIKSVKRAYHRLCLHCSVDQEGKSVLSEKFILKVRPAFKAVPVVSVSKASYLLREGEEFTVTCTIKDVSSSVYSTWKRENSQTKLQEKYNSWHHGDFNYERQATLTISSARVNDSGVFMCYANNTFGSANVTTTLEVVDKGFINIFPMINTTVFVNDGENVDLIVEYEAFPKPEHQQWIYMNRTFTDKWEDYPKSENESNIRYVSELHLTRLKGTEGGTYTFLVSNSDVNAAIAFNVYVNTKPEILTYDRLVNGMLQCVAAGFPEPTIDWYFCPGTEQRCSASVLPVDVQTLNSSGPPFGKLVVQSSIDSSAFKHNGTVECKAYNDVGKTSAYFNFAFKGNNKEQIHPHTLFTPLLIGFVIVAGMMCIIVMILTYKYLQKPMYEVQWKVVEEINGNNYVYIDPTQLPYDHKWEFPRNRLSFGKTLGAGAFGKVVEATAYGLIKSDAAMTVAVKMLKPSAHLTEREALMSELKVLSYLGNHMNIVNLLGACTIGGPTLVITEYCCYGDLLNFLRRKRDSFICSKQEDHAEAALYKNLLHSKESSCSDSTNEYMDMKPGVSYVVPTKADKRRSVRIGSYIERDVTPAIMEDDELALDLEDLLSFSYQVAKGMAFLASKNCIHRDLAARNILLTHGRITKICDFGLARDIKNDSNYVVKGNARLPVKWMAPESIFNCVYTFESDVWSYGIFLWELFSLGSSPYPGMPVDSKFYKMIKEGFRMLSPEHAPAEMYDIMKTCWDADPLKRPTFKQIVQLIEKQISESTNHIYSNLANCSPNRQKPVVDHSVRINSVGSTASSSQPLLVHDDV
EPHA2, sequence (P29317 24-976): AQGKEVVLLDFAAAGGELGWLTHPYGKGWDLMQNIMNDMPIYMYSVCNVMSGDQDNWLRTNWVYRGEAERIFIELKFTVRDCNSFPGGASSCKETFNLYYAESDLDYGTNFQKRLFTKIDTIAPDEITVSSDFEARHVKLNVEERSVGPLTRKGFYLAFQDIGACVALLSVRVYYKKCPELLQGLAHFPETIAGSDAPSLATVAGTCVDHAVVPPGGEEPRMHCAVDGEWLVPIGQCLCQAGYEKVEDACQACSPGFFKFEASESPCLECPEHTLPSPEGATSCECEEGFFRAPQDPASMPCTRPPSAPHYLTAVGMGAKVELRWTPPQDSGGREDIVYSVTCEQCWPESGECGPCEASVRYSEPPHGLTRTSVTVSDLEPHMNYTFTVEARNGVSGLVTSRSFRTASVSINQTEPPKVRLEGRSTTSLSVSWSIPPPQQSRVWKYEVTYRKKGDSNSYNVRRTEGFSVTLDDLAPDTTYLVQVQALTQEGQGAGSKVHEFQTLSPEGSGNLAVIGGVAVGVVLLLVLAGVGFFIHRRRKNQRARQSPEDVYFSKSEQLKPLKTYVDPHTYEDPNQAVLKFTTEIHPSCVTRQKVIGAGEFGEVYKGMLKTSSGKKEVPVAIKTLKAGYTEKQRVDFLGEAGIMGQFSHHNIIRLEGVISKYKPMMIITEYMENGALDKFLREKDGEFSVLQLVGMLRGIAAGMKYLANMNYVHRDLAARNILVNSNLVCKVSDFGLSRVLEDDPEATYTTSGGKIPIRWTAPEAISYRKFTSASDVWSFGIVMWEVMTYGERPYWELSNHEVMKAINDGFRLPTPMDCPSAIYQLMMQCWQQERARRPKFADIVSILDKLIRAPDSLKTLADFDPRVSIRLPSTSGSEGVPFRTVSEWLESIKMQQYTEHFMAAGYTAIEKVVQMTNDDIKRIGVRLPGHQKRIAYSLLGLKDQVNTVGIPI
CDKL1, sequence (Q00532 whole entry): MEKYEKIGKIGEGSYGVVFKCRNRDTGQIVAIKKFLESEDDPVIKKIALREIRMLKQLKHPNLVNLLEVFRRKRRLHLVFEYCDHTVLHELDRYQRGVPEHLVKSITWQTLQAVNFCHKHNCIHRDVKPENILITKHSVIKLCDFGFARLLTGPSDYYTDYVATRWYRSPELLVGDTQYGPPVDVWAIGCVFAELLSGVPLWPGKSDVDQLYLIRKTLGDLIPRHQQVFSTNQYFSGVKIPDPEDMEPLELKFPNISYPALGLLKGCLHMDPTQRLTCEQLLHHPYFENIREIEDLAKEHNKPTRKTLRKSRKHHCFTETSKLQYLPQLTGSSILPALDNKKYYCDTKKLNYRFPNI
TSSK3, sequence (Q96PN8 whole entry): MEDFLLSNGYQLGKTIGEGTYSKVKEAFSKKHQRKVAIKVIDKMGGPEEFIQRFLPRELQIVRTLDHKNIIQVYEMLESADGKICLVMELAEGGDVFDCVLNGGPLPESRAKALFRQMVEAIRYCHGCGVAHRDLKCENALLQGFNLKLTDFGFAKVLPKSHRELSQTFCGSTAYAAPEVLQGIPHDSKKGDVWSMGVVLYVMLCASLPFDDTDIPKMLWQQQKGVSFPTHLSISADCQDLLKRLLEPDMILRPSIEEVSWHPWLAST
BRAF, sequence (P15056 whole entry): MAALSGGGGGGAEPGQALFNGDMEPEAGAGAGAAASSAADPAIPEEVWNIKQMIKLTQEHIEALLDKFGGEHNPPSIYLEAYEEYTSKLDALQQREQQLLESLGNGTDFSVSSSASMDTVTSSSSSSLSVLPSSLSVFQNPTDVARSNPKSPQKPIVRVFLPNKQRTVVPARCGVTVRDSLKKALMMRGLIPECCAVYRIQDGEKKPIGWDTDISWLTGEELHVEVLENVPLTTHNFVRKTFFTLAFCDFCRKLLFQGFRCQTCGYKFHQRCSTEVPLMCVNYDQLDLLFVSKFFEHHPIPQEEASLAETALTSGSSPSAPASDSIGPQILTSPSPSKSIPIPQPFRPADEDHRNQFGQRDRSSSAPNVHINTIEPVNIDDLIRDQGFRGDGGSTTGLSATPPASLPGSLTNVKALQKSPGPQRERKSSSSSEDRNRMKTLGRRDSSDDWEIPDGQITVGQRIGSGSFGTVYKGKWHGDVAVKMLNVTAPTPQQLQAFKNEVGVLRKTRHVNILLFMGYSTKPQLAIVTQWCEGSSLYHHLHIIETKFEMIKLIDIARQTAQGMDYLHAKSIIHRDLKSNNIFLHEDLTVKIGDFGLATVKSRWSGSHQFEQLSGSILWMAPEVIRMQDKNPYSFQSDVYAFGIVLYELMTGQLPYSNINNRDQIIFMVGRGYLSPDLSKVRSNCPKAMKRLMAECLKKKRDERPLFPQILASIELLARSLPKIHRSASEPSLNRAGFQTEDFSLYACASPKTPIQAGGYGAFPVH
ULK3, sequence (Q6PHR2 whole entry): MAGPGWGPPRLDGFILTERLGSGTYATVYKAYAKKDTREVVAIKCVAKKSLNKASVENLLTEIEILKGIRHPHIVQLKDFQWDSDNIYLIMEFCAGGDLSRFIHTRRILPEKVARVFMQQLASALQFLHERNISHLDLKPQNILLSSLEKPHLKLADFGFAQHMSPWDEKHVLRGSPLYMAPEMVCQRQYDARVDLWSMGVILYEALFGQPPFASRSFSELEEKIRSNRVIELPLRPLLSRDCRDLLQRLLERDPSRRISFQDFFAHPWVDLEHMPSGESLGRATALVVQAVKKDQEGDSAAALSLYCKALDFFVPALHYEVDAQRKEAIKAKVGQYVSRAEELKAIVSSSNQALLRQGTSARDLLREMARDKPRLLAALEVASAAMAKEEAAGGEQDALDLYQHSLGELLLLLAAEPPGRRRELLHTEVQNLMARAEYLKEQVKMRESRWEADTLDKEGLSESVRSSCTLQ
PLK3, sequence (Q9H4B4 whole entry): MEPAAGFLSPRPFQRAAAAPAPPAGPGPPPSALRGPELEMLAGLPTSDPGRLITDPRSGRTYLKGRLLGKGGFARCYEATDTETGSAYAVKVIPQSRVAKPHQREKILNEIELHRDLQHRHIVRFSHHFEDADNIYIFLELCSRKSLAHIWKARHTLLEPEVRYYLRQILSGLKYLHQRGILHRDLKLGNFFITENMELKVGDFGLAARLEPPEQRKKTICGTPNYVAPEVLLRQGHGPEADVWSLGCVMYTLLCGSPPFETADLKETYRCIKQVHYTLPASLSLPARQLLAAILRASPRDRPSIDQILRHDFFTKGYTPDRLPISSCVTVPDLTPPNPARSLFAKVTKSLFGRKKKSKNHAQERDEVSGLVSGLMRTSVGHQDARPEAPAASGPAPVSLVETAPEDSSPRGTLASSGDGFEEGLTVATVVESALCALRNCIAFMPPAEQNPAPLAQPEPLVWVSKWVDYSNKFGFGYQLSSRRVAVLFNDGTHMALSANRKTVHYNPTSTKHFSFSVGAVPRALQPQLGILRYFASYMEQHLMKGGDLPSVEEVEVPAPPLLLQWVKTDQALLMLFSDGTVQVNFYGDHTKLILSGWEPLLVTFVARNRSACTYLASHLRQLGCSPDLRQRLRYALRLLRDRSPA
NEK2, sequence (P51955 whole entry): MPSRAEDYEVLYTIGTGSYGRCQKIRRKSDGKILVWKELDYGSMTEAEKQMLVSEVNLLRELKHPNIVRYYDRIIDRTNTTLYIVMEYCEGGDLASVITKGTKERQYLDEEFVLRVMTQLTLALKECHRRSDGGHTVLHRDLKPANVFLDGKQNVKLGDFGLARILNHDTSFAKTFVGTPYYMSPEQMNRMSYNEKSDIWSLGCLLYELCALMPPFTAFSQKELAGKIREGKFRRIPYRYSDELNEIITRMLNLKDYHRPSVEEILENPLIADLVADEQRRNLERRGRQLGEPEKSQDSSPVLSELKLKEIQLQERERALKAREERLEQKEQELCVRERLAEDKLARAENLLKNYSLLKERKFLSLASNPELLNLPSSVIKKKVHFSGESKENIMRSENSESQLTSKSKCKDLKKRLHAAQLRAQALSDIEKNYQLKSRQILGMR

| SMILES | remaining binding at 1 µM (EPHA2) | remaining binding at 1 µM (MEK5) | remaining binding at 1 µM (PAK2) | remaining binding at 1 µM (IRAK4) | remaining binding at 1 µM (FLT3(D835V)) | remaining binding at 1 µM (EGFR(L858R, T790M)) | remaining binding at 1 µM (RIOK2) | remaining binding at 1 µM (LRRK2) | remaining binding at 1 µM (PCTK1) | remaining binding at 1 µM (TAOK2) | remaining binding at 1 µM [1] | remaining binding at 1 µM (BRAF) | remaining binding at 1 µM (ULK3) | remaining binding at 1 µM (MAP4K3) | remaining binding at 1 µM (CAMK1D) | remaining binding at 1 µM (TSSK3) | remaining binding at 1 µM (PLK3) | remaining binding at 1 µM (MST1R) | remaining binding at 1 µM (LIMK1) | remaining binding at 1 µM (SRPK1) | further results |
| --- | --- | --- | --- | --- | --- | --- | --- | --- | --- | --- | --- | --- | --- | --- | --- | --- | --- | --- | --- | --- | --- |
| CCNc1cc(Nc2ccc(C(=O)N3CCC(N4CCOCC4)CC3)cc2OC)nc2[nH]cc(C#N)c12 [Example 18, 4-(ethylamino)-6-((2-methoxy-4-(4-morpholinopiperidine-1-carbonyl)phenyl)amino)-1H-pyrrolo[2,3-b]pyridine-3-carbonitrile] | 97% | 77% | 82% | 99% | 74% | 81% | 63% | 1.1% | 98% | 77% | 77% | 83% | 95% | 93% | 31% | 30% | 79% | 81% | 92% | 89% | remaining binding at 1 µM [2]: 0.3%; remaining binding at 1 µM (MLK1): 100%; remaining binding at 1 µM (ZAP70): 38%; remaining binding at 1 µM (CSNK1G2): 27%; remaining binding at 1 µM (PYK2): 60%; remaining binding at 1 µM (KIT): 49%; remaining binding at 1 µM (EGFR(E746-A750del)): 83%; remaining binding at 1 µM [3]: 96%; remaining binding at 1 µM (HCK): 85%; remaining binding at 1 µM (NEK2): 100%; remaining binding at 1 µM (CDKL2): 100%; remaining binding at 1 µM (TNK2): 92%; remaining binding at 1 µM [4]: 89%; remaining binding at 1 µM (CDKL1): 89%; % control (FLT3(ITD, D835V)): 100%; remaining binding at 1 µM (ADCK3): 86%; remaining binding at 1 µM (VRK2): 87%; remaining binding at 1 µM (DDR2): 98%; remaining binding at 1 µM (TYRO3): 80% |
| CCNc1cc(Nc2ccc(C(=O)N3CCC(N4CCOCC4)CC3)cc2OC)nc2[nH]cc(C(F)(F)F)c12 [Example 57, (4-((4-(ethylamino)-3-(trifluoromethyl)-1H-pyrrolo[2,3-b]pyridin-6-yl)amino)-3-methoxyphenyl) (4-morpholinopiperidin-1-yl)methanone] | 83% | 99% | 40% | 100% | 92% | 73% | 100% | 48% | 83% | 85% | 84% | 98% | 83% | 91% | 73% | 91% | 98% | 70% | 99% | 85% | remaining binding at 1 µM [2]: 100%; remaining binding at 1 µM (MLK1): 100%; remaining binding at 1 µM (ZAP70): 100%; remaining binding at 1 µM (CSNK1G2): 86%; remaining binding at 1 µM (PYK2): 76%; remaining binding at 1 µM (KIT): 91%; remaining binding at 1 µM (EGFR(E746-A750del)): 98%; remaining binding at 1 µM [3]: 100%; remaining binding at 1 µM (HCK): 88%; remaining binding at 1 µM (NEK2): 94%; remaining binding at 1 µM (CDKL2): 90%; remaining binding at 1 µM (TNK2): 86%; remaining binding at 1 µM [4]: 100%; remaining binding at 1 µM (CDKL1): 63%; % control (FLT3(ITD, D835V)): 100%; remaining binding at 1 µM (ADCK3): 89%; remaining binding at 1 µM (VRK2): 100%; remaining binding at 1 µM (DDR2): 91%; remaining binding at 1 µM (TYRO3): 96% |
